# Measurements published in patent publication US7820623B2 (priority 2006, dated 2010).
# Like-named read-outs stand apart in the source and are kept apart here. Bridge positions count the residues as written; N and C are the ends. Square brackets hold non-standard residues; d marks the D form. Peptide text beside a SMILES is read from it. 1Nal = N[C@@H](Cc1cccc2ccccc12)C(=O)O
# Assays:
# [1] = tested on: thapsigargin-induced IFN-g production in human whole blood; type: cell-based
# [2] = tested on: thapsigargin-induced IL-2 production in human whole blood
# [3] = read-out: Analogue Activity (IC50) WB/IFNg
# [4] = read-out: Analogue Activity (IC50) WB/IL-2
Molecule,"IC50 [1, 3] [nM]","IC50 [2, 4] [nM]",IC50 ([1]; read-out: Average IC50 IFNg) [nM],IC50 ([2]; read-out: Average IC50 IL-2) [nM],also measured
"CC[C@H](C)[C@@H]1NC(=O)[C@H](CCCCN)NC(=O)[C@@H](NC(=O)[C@H](CCCCN)NC(=O)[C@@H](NC(=O)[C@H](CC(N)=O)NC(=O)[C@@H](NC(=O)[C@@H](NC(=O)[C@@H](NC(=O)CN)C(C)C)[C@@H](C)CC)[C@@H](C)CC)C(C)C)CSSC[C@@H]2NC(=O)[C@H](CCCCN)NC(=O)CNC(=O)[C@H](Cc3ccccc3)NC(=O)[C@H](CCCNC(=N)N)NC(=O)[C@H](CCSC)NC(=O)CNC(=O)[C@H](C)NC(=O)[C@H](C)NC(=O)[C@H](CCCCN)NC(=O)[C@@H]3CSSC[C@@H](C(=O)N[C@H](C(=O)N4CCC[C@H]4C(=O)N[C@@H](CCCCN)C(=O)O)[C@@H](C)O)NC(=O)[C@H](Cc4c[nH]cn4)NC(=O)[C@H](CSSC[C@H](NC(=O)[C@H](CCC(N)=O)NC(=O)[C@H](CCCNC(=N)N)NC(=O)[C@H](CO)NC1=O)C(=O)N[C@@H](CC(C)C)C(=O)N[C@@H](CCC(=O)O)C(=O)N1CCC[C@H]1C(=O)N3)NC(=O)[C@H](CCCCN)NC(=O)CNC(=O)[C@H](CC(N)=O)NC(=O)[C@H](CCSC)NC2=O [K20A] (H-GVIINVKCKISRQCLEPCKAAGMRFGKCMNGKCHCTPK-OH; disulfide 8-28, 14-33, 18-35)",0.379,0.379,,,
AVIINVKCKISRQCLEPCKKAGMRFGKCMNGKCHCTPK [Ala-1 (SEQ ID No: 1400)],,,0.119,0.122,
GVIINVKCKASRQCLEPCKKAGMRFGKCMNGKCHCTPK [Ala-10 (SEQ ID No: 1408)],,,0.0296,0.05,
"CC[C@H](C)[C@@H]1NC(=O)[C@H](CCCCN)NC(=O)[C@@H](NC(=O)[C@H](CCCCN)NC(=O)[C@@H](NC(=O)[C@H](CC(N)=O)NC(=O)[C@@H](NC(=O)[C@@H](NC(=O)[C@@H](NC(=O)CN)C(C)C)[C@@H](C)CC)[C@@H](C)CC)C(C)C)CSSC[C@@H]2NC(=O)[C@H](CCCCN)NC(=O)CNC(=O)[C@H](Cc3ccccc3)NC(=O)[C@H](CCCNC(=N)N)NC(=O)[C@H](CCSC)NC(=O)CNC(=O)[C@H](C)NC(=O)[C@H](CCCCN)NC(=O)[C@H](CCCCN)NC(=O)[C@@H]3CSSC[C@@H](C(=O)N[C@H](C(=O)N4CCC[C@H]4C(=O)N[C@@H](CCCCN)C(=O)O)[C@@H](C)O)NC(=O)[C@H](Cc4c[nH]cn4)NC(=O)[C@H](CSSC[C@H](NC(=O)[C@H](CCC(N)=O)NC(=O)[C@H](CCCNC(=N)N)NC(=O)[C@H](CO)NC1=O)C(=O)N[C@@H](C)C(=O)N[C@@H](CCC(=O)O)C(=O)N1CCC[C@H]1C(=O)N3)NC(=O)[C@H](CCCCN)NC(=O)CNC(=O)[C@H](CC(N)=O)NC(=O)[C@H](CCSC)NC2=O [L15A] (H-GVIINVKCKISRQCAEPCKKAGMRFGKCMNGKCHCTPK-OH; disulfide 8-28, 14-33, 18-35)",0.107,0.107,,,
"CC[C@H](C)[C@@H]1NC(=O)[C@H](CCCCN)NC(=O)[C@@H](NC(=O)[C@H](CCCCN)NC(=O)[C@@H](NC(=O)[C@H](CC(N)=O)NC(=O)[C@@H](NC(=O)[C@@H](NC(=O)[C@@H](NC(=O)CN)C(C)C)[C@@H](C)CC)[C@@H](C)CC)C(C)C)CSSC[C@@H]2NC(=O)[C@H](CCCCN)NC(=O)CNC(=O)[C@H](Cc3ccccc3)NC(=O)[C@H](CCCNC(=N)N)NC(=O)[C@H](CCC(=O)O)NC(=O)CNC(=O)[C@H](C)NC(=O)[C@H](CCCCN)NC(=O)[C@H](CCCCN)NC(=O)[C@@H]3CSSC[C@@H](C(=O)N[C@H](C(=O)N4CCC[C@H]4C(=O)N[C@@H](CCCCN)C(=O)O)[C@@H](C)O)NC(=O)[C@H](Cc4c[nH]cn4)NC(=O)[C@H](CSSC[C@H](NC(=O)[C@H](CCC(N)=O)NC(=O)[C@H](CCCNC(=N)N)NC(=O)[C@H](CO)NC1=O)C(=O)N[C@@H](CC(C)C)C(=O)N[C@@H](CCC(=O)O)C(=O)N1CCC[C@H]1C(=O)N3)NC(=O)[C@H](CCCCN)NC(=O)CNC(=O)[C@H](CC(N)=O)NC(=O)[C@H](CCSC)NC2=O [M23E] (H-GVIINVKCKISRQCLEPCKKAGERFGKCMNGKCHCTPK-OH; disulfide 8-28, 14-33, 18-35)",0.666,0.606,,,
"CC[C@H](C)[C@@H]1NC(=O)[C@H](CCCCN)NC(=O)[C@@H](NC(=O)[C@H](CCCCN)NC(=O)[C@@H](NC(=O)[C@H](CC(N)=O)NC(=O)[C@@H](NC(=O)[C@@H](NC(=O)[C@@H](NC(=O)CN)C(C)C)[C@@H](C)CC)[C@@H](C)CC)C(C)C)CSSC[C@@H]2NC(=O)[C@H](CCCCN)NC(=O)CNC(=O)[C@H](Cc3ccccc3)NC(=O)[C@H](CCCNC(=N)N)NC(=O)[C@H](CCSC)NC(=O)CNC(=O)[C@H](C)NC(=O)[C@H](CCCCN)NC(=O)[C@H](CCCNC(=N)N)NC(=O)[C@@H]3CSSC[C@@H](C(=O)N[C@H](C(=O)N4CCC[C@H]4C(=O)N[C@@H](CCCCN)C(=O)O)[C@@H](C)O)NC(=O)[C@H](Cc4c[nH]cn4)NC(=O)[C@H](CSSC[C@H](NC(=O)[C@H](CCC(N)=O)NC(=O)[C@H](CCCNC(=N)N)NC(=O)[C@H](CO)NC1=O)C(=O)N[C@@H](CC(C)C)C(=O)N[C@@H](CCC(=O)O)C(=O)N1CCC[C@H]1C(=O)N3)NC(=O)[C@H](CCCCN)NC(=O)CNC(=O)[C@H](CC(N)=O)NC(=O)[C@H](CCSC)NC2=O [K19R] (H-GVIINVKCKISRQCLEPCRKAGMRFGKCMNGKCHCTPK-OH; disulfide 8-28, 14-33, 18-35)",0.062,0.044,,,
"E16K, K20D, des36-38 (GVIINVKCKISRQCLKPCKDAGMRFGKCMNGKCHC)",,,,,IC50 ([1]; read-out: WB/IFNg (IC50)): 6.99 nM; IC50 ([2]; read-out: WB/IL-2 (IC50)): 3.94 nM
"CC[C@H](C)[C@@H]1NC(=O)[C@H](CCCCN)NC(=O)[C@@H](NC(=O)[C@H](CCCCN)NC(=O)[C@@H](NC(=O)[C@H](CC(N)=O)NC(=O)[C@@H](NC(=O)[C@@H](NC(=O)[C@@H](NC(=O)CN)C(C)C)[C@@H](C)CC)[C@@H](C)CC)C(C)C)CSSC[C@@H]2NC(=O)[C@H](CCCCN)NC(=O)CNC(=O)[C@H](Cc3ccccc3)NC(=O)[C@H](CCCNC(=N)N)NC(=O)[C@H](CCSC)NC(=O)CNC(=O)[C@H](C)NC(=O)[C@H](CCCCN)NC(=O)[C@H](CCCCN)NC(=O)[C@@H]3CSSC[C@@H](C(=O)N[C@H](C(=O)N4CCC[C@H]4C(=O)N[C@@H](CCCCN)C(=O)O)[C@@H](C)O)NC(=O)[C@H](Cc4c[nH]cn4)NC(=O)[C@H](CSSC[C@H](NC(=O)[C@H](CCC(N)=O)NC(=O)[C@H](CCCNC(=N)N)NC(=O)[C@H](CO)NC1=O)C(=O)N[C@@H](CC(C)C)C(=O)N[C@@H](Cc1cccc4ccccc14)C(=O)N1CCC[C@H]1C(=O)N3)NC(=O)[C@H](CCCCN)NC(=O)CNC(=O)[C@H](CC(N)=O)NC(=O)[C@H](CCSC)NC2=O [E16Nal] (H-GVIINVKCKISRQCL[1Nal]PCKKAGMRFGKCMNGKCHCTPK-OH; disulfide 8-28, 14-33, 18-35)",1.51,1.02,,,
"R12A, E16K, K20D (GVIINVKCKISAQCLKPCKDAGMRFGKCMNGKCHCTPK)",,,,,IC50 ([1]; read-out: WB/IFNg (IC50)): 0.092 nM; IC50 ([2]; read-out: WB/IL-2 (IC50)): 0.041 nM
GVIINVKCAISRQCLEPCKKAGMRFGKCMNGKCHCTPK [Ala-9 (SEQ ID No: 1407)],,,0.0711,0.0796,
GVIIAVKCKISRQCLEPCKKAGMRFGKCMNGKCHCTPK [Ala-5 (SEQ ID No: 1404)],,,0.067,0.0679,
"CC[C@H](C)[C@@H]1NC(=O)[C@H](CCCCN)NC(=O)[C@@H](NC(=O)[C@H](CCCCN)NC(=O)[C@@H](NC(=O)[C@H](CC(N)=O)NC(=O)[C@@H](NC(=O)[C@@H](NC(=O)[C@@H](NC(=O)CN)C(C)C)[C@@H](C)CC)[C@@H](C)CC)C(C)C)CSSC[C@@H]2NC(=O)[C@H](CCCCN)NC(=O)CNC(=O)[C@H](Cc3ccccc3)NC(=O)[C@H](CCCNC(=N)N)NC(=O)[C@H](CCSC)NC(=O)CNC(=O)[C@H](C)NC(=O)[C@H](CCCCN)NC(=O)[C@H](CCCCN)NC(=O)[C@@H]3CSSC[C@@H](C(=O)N[C@H](C(=O)N4CCC[C@H]4C(=O)N[C@@H](CCCCN)C(=O)O)[C@@H](C)O)NC(=O)[C@H](Cc4c[nH]cn4)NC(=O)[C@H](CSSC[C@H](NC(=O)[C@H](CCC(N)=O)NC(=O)[C@H](CCCNC(=N)N)NC(=O)[C@H](CO)NC1=O)C(=O)N[C@@H](CC(C)C)C(=O)N[C@@H](CCC(=O)O)C(=O)N1CCC[C@H]1C(=O)N3)NC(=O)[C@H](CCC(=O)O)NC(=O)CNC(=O)[C@H](CC(N)=O)NC(=O)[C@H](CCSC)NC2=O [K32E] (H-GVIINVKCKISRQCLEPCKKAGMRFGKCMNGECHCTPK-OH; disulfide 8-28, 14-33, 18-35)",0.063,0.062,,,
"CC[C@H](C)[C@H](NC(=O)[C@@H](NC(=O)CN)C(C)C)C(=O)N[C@H](C(=O)N[C@@H](CC(N)=O)C(=O)N[C@H](C(=O)N[C@@H](CCCCN)C(=O)N[C@H]1CSSC[C@@H]2NC(=O)[C@H](CCCCN)NC(=O)CNC(=O)[C@H](Cc3ccccc3)NC(=O)[C@H](CCCNC(=N)N)NC(=O)[C@H](CCSC)NC(=O)CNC(=O)[C@H](C)NC(=O)[C@H](CCCCN)NC(=O)[C@H](CCCCN)NC(=O)[C@@H]3CSSC[C@@H](C(=O)N[C@H](C(=O)N4CCC[C@H]4C(=O)N[C@@H](CCCCN)C(=O)O)[C@@H](C)O)NC(=O)[C@H](Cc4c[nH]cn4)NC(=O)[C@H](CSSC[C@H](NC(=O)[C@H](CCC(N)=O)NC(=O)[C@H](CCCNC(=N)N)NC(=O)[C@H](CO)NC(=O)[C@H](CCCNC(=N)N)NC(=O)[C@H](CCCCN)NC1=O)C(=O)N[C@@H](CC(C)C)C(=O)N[C@@H](CCC(=O)O)C(=O)N1CCC[C@H]1C(=O)N3)NC(=O)[C@H](CCCCN)NC(=O)CNC(=O)[C@H](CC(N)=O)NC(=O)[C@H](CCSC)NC2=O)C(C)C)[C@@H](C)CC [I10R] (H-GVIINVKCKRSRQCLEPCKKAGMRFGKCMNGKCHCTPK-OH; disulfide 8-28, 14-33, 18-35)",0.474,0.307,,,
